Literature values in publication PMC12114947, “Evaluation of Violacein Metabolic Stability and Metabolite Identification in Human, Mouse, and Rat Liver Microsomes” (Pharmaceutics, 2025).
Where two headings read alike, the source gives them in different places.

Assays:
[1] = cited from earlier work
[2] = cited from earlier work; remark: listed apart in the source
[3] = cited from earlier work; remark: listed apart in the source
[4] = set-up: method as in PMID 12920490, PMID 24002099, PMID 10445386; details: based on the human hepatic microsomal pathway; cited from earlier work
[5] = cited from earlier work; remark: listed apart in the source
[6] = cited from earlier work; remark: listed apart in the source
[7] = cited from earlier work; remark: listed apart in the source
[8] = set-up: method as in PMID 9408857; details: humans; cited from earlier work
[9] = set-up: method as in PMID 9408857; details: rabbits; cited from earlier work
[10] = set-up: method as in PMID 9408857; details: rats; cited from earlier work
[11] = set-up: method as in PMID 9408857; details: dogs; cited from earlier work
[12] = set-up: method as in PMID 38399311; details: liver microsomes, humans; cited from earlier work
[13] = set-up: method as in PMID 38399311; details: liver microsomes, rats; cited from earlier work
[14] = set-up: method as in PMID 38399311; details: liver microsomes, mice; cited from earlier work

## Cc1ncc2n1-c1ccc(Cl)cc1C(c1ccccc1F)=NC2 [midazolam]
[1]; human
  CLint, in vivo: 0.40 L/h/kg
[1]; humans
  t1/2: 111 min
[2]; rat
  CLint, in vivo: 4.75 L/h/kg
[2]; rats
  t1/2: about 31 min

## CCN(CC)CCCC(C)Nc1ccnc2cc(Cl)ccc12 (stereo not shown) [chloroquine]
[3]
  Clearance: 0.09 to 0.1 L/h/kg

## COc1cc(NC(C)CCCN)c2ncccc2c1 (stereo not shown) [primaquine]
[4]
  Estimated CLint, in vivo: approximately 0.017 mL/min/kg

## C[C@@H]1CC[C@H]2[C@@H](C)C(=O)O[C@@H]3O[C@@]4(C)CC[C@@H]1[C@]32OO4 [artemisinin]
[5]; in vivo
  t1/2: 60 to 120 min

## NC(Cc1cc(I)c(Oc2cc(I)c(O)c(I)c2)c(I)c1)C(=O)O (stereo not shown) [thyroxine]
[6]; rat 1
  CLint, in vitro: 1.08 mL/min/10^6 cells
[6]; rat 2
  CLint, in vitro: 0.75 mL/min/10^6 cells
[7]; human donor 1364
  CLint, in vitro: 0.61 mL/min/10^6 cells
[7]; human donor Hu1362
  CLint, in vitro: 0.56 mL/min/10^6 cells

## CNS(=O)(=O)Cc1ccc2[nH]cc(CCN(C)C)c2c1 [sumatriptan]
[8]
  Clearance: approximately 1.10 L/h/kg
[9]
  Clearance: 1.56 L/h/kg
[10]
  Clearance: 2.68 L/h/kg
[11]
  Clearance: 0.84 L/h/kg

## CCCCN(CCCC)CC(O)c1cc(Cl)cc2c1-c1ccc(Cl)cc1/C2=C/c1ccc(Cl)cc1 (stereo not shown) [lumefantrine]
[5]; antimalarials
  t1/2: 4320 to 8640 min

## OC(c1cc(C(F)(F)F)nc2c(C(F)(F)F)cccc12)C1CCCCN1 (stereo not shown) [mefloquine]
[3]; in vivo
  Clearance: 0.02 to 0.05 L/h/kg

## CCCC(NCC)C(=O)c1ccccc1 (stereo not shown) [N-ethyl pentedrone]
[12]
  t1/2: 770 min
[13]
  t1/2: 12.1 min
[14]
  t1/2: 187 min

## CO[C@H]1O[C@@H]2O[C@@]3(C)CC[C@H]4[C@H](C)CC[C@@H]([C@H]1C)[C@@]24OO3 [artemether]
[3]; artemether alone
  Clearance: 16.88 ± 4.04 L/h/kg
[3]; co-administered with pyronaridine
  Clearance: 28.00 ± 2.16 L/h/kg
